Reference: BindingDB's records for doi:10.1021/jm701487t (F. Hoffmann-La Roche, 2008)

Target: Cannabinoid receptor 2 (Homo sapiens, UniProt P34972)
Sequence (P34972 whole entry): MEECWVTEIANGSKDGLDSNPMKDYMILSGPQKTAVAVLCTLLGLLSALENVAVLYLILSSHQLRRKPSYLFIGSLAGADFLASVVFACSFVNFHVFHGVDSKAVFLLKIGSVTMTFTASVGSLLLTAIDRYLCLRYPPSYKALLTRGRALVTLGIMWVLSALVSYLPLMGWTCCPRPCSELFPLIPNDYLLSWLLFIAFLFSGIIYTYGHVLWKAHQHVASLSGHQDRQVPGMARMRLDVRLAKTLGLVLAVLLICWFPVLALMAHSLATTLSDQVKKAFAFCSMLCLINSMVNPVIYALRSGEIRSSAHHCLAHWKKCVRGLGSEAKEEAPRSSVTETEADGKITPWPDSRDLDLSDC

Ki: 3 nM
SMILES: O=C(c1cc2c(cc1F)OC(c1ccc(F)cc1)(c1ccc(Cl)cc1Cl)O2)N1CCOCC1 (stereo unspecified) [CAS_24828562]
